The numbers were not newly measured in patent US12311060B2 (priority 2017, dated 2025), which cites them from elsewhere.

For the data set the following is noted: rodent models.

Structures are written as SMILES.

Regarding `C/C=C1\C2C=C(C)C[C@]1(N)c1ccc(=O)[nH]c1C2` (stereo in doubt) [huperzine A, (1R,9S,13E)-1-amino-13-ethylidene-11-methyl-6-azatricyclo[7.3.1.02,7]trideca-2(7),3,10-trien-5-one], the “efficacy as an anticonvulsant in words” value was “very high efficacy”.
